target: T1, SIRT1 (Homo sapiens, UniProt Q96EB6); experiment: Trp mass spectrometry assay of SIRT1 activation; assay type: biochemical; details: Trp mass spectrometry assay; concentration of test compound giving 150% activation of SIRT1
T1 sequence (Q96EB6 1-747): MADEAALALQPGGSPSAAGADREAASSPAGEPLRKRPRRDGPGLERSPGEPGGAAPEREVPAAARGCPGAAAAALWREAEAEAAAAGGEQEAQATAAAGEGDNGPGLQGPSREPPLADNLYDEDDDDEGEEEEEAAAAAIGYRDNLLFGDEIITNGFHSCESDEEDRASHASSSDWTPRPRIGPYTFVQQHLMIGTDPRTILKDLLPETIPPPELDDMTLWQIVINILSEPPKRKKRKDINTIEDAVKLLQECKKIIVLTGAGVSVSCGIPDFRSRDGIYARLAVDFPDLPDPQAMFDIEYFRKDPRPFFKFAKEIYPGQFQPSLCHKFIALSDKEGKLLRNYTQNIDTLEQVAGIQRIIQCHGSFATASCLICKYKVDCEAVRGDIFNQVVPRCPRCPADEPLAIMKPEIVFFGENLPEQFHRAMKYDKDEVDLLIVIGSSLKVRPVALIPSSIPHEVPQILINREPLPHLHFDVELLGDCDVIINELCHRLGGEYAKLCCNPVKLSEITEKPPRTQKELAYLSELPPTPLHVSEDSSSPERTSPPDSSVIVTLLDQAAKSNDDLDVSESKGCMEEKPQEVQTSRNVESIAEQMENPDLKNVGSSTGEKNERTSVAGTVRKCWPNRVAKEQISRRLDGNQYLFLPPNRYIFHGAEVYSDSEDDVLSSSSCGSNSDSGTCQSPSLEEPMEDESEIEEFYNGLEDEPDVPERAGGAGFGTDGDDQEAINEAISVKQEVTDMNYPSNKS
Outline: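 Activation read-out: mass-spec measurement of O-acetyl-ADP-ribose or deacetylated Trp peptide versus compound-free controls, giving EC1.5 and Percent Maximum Activation. Reactions ran 25 min at 25 °C, pH 7.5, with 120 μM βNAD+, 0.5 μM acetylated p53-derived peptide and 10 nM His-tagged SIRT1.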

Compound | Tryp AVG EC1.5 (μM)
C[C@@H]1CCN(C)c2ccc(-c3cccc(CC(O)CO)c3)nc2N1C(=O)Nc1ccc(F)cn1 (some centres unmarked) [Example 356] | A (A (EC1.5<1 μM))
O=C(Nc1ccncc1F)N1c2nc(-c3cccc(CC(O)CO)c3)ccc2N2CC[C@H]1C2 (some centres unmarked) [Example 357] | B (B (EC1.5 1-25 μM))
COc1cc(NC(=O)N2c3nc(-c4ccnc(F)c4)ccc3N3CC[C@H]2C3)ncn1 [Example 358] | C (C (EC1.5>25 μM))
O=C(Nc1ccc(F)cn1)N1c2nc(N3CCCC(C(F)(F)F)C3)ccc2N2CCC[C@H]1C2 (some centres unmarked) [Example 359] | A (A (EC1.5<1 μM))
O=C(Nc1ccncc1)N1c2nc(N3CCCC(C(F)(F)F)C3)ccc2N2CCC[C@H]1C2 (some centres unmarked) [Example 360] | A (A (EC1.5<1 μM))
O=C(Nc1cc(O)ncn1)N1c2nc(N3CCCC(C(F)(F)F)C3)ccc2N2CCC[C@H]1C2 (some centres unmarked) [Example 361] | A (A (EC1.5<1 μM))
O=C(Nc1ccc(F)cn1)N1c2nc(N3CCCC(C(F)(F)F)C3)ccc2N2CCC[C@@H]1C2 (some centres unmarked) [Example 362] | C (C (EC1.5>25 μM))
O=C(Nc1cnccn1)N1c2nc(-c3cc(C(F)(F)F)cc(C(F)(F)F)c3)ccc2N2CC[C@H]1C2 [Example 363] | B (B (EC1.5 1-25 μM))
O=C(Nc1cnccn1)N1c2nc(-c3cc(Cl)cc(Cl)c3)ccc2N2CC[C@H]1C2 [Example 364] | B (B (EC1.5 1-25 μM))
O=C(Nc1cccc(-c2cnco2)c1)N1c2nc(-c3cccc(Cl)c3)ccc2N2CC[C@H]1C2 [Example 365] | A (A (EC1.5<1 μM))
COc1cncc(NC(=O)N2c3nc(-c4cccc(N5CCCC5)c4)ccc3N3CC[C@H]2C3)n1 [Example 366] | A (A (EC1.5<1 μM))
O=C(Nc1ccccn1)N1c2nc(-c3ccnc(N4CCC(C(F)(F)F)C4)c3)ccc2N2CC[C@H]1C2 (some centres unmarked) [Example 367] | A (A (EC1.5<1 μM))
COc1cc(NC(=O)N2c3nc(-c4ccnc(N5CCC(C(F)(F)F)C5)c4)ccc3N3CC[C@H]2C3)ncn1 (some centres unmarked) [Example 368] | B (B (EC1.5 1-25 μM))
O=C(Nc1ccccn1)N1c2nc(-c3cncc(C(F)(F)F)c3)ccc2N2CCC[C@H]1C2 [Example 369] | A (A (EC1.5<1 μM))
Cc1n[nH]cc1-c1ccc2c(n1)N(C(=O)Nc1ccccn1)[C@H]1CCN2C1 [Example 370] | B (B (EC1.5 1-25 μM))
NC(=O)c1cncc(-c2ccc3c(n2)N(C(=O)Nc2ccccn2)[C@H]2CCN3C2)c1 [Example 371] | B (B (EC1.5 1-25 μM))
O=C(Nc1ccccn1)N1c2nc(-c3ccc4nonc4c3)ccc2N2CC[C@H]1C2 [Example 372] | B (B (EC1.5 1-25 μM))
N#Cc1cncc(-c2ccc3c(n2)N(C(=O)Nc2ccccn2)[C@H]2CCN3C2)c1 [Example 373] | A (A (EC1.5<1 μM))
O=C(Nc1ccccn1)N1c2nc(-c3cncc(F)c3)ccc2N2CC[C@H]1C2 [Example 374] | B (B (EC1.5 1-25 μM))
CS(=O)(=O)c1cncc(-c2ccc3c(n2)N(C(=O)Nc2ccccn2)[C@H]2CCCN3C2)c1 [Example 375] | A (A (EC1.5<1 μM))
CS(=O)(=O)c1cncc(-c2ccc3c(n2)N(C(=O)Nc2cccnc2)[C@H]2CCCN3C2)c1 [Example 376] | A (A (EC1.5<1 μM))
CS(=O)(=O)c1cncc(-c2ccc3c(n2)N(C(=O)Nc2cncc(F)c2)[C@H]2CCCN3C2)c1 [Example 377] | A (A (EC1.5<1 μM))
CS(=O)(=O)c1cncc(-c2ccc3c(n2)N(C(=O)Nc2cnccn2)[C@H]2CCCN3C2)c1 [Example 378] | A (A (EC1.5<1 μM))
CS(=O)(=O)c1cncc(-c2ccc3c(n2)N(C(=O)Nc2ccncn2)[C@H]2CCCN3C2)c1 [Example 379] | A (A (EC1.5<1 μM))
CS(=O)(=O)c1cncc(-c2ccc3c(n2)N(C(=O)Nc2cccnn2)[C@H]2CCCN3C2)c1 [Example 380] | A (A (EC1.5<1 μM))
N#Cc1cccc(-c2ccc3c(n2)N(C(=O)Nc2cccnn2)[C@H]2CCCN3C2)c1 [Example 381] | B (B (EC1.5 1-25 μM))

Compound | Tryp AVG EC1.5 (μM)
CC(C)(C)OC(=O)N1CCCN(c2ccc3c(n2)N(C(=O)Nc2ccncn2)[C@H]2CCCN3C2)CC1 [Example 382] | C (C (EC1.5>25 μM))
Cc1nc(NC(=O)N2c3nc(-c4cccc(N(C)C)c4)ccc3N3CCC[C@H]2C3)sc1C [Example 383] | A (A (EC1.5<1 μM))
CN(C)c1cccc(-c2ccc3c(n2)N(C(=O)Nc2ccc(F)cn2)[C@H]2CCCN3C2)c1 [Example 384] | B (B (EC1.5 1-25 μM))
COc1cc(NC(=O)N2c3nc(-c4cccc(N(C)C)c4)ccc3N3CCC[C@H]2C3)ncn1 [Example 385] | A (A (EC1.5<1 μM))
CN(C)c1cccc(-c2ccc3c(n2)N(C(=O)Nc2ccccn2)[C@H]2CCCN3C2)c1 [Example 386] | B (B (EC1.5 1-25 μM))
O=C(Nc1ccccn1)N1c2nc(-c3cccc(Cl)c3)ccc2N2CCC[C@H]1C2 [Example 387] | A (A (EC1.5<1 μM))
O=C(Nc1ccccn1)N1c2nc(-c3ccnc(N4CCC(F)(F)C4)c3)ccc2N2CC[C@H]1C2 [Example 388] | A (A (EC1.5<1 μM))
COc1cc(NC(=O)N2c3nc(-c4ccnc(N5CCC(F)(F)C5)c4)ccc3N3CC[C@H]2C3)ncn1 [Example 390] | B (B (EC1.5 1-25 μM))
O=C(Nc1ccc(F)cn1)N1c2nc(-c3ccnc(N4CCC(C(F)(F)F)C4)c3)ccc2N2CC[C@H]1C2 (some centres unmarked) [Example 391] | A (A (EC1.5<1 μM))
O=C(Nc1cccnc1)N1c2nc(-c3cncc(C(F)(F)F)c3)ccc2N2CC[C@H]1C2 [Example 392] | A (A (EC1.5<1 μM))
O=C(Nc1ccncn1)N1c2nc(-c3cncc(C(F)(F)F)c3)ccc2N2CCC[C@H]1C2 [Example 393] | A (A (EC1.5<1 μM))
COc1cc(NC(=O)N2c3nc(-c4cncc(C(F)(F)F)c4)ccc3N3CCC[C@H]2C3)ncn1 [Example 394] | A (A (EC1.5<1 μM))
Cn1cc(-c2ccc3c(n2)N(C(=O)Nc2cccnc2)[C@H]2CCN3C2)cn1 [Example 395] | B (B (EC1.5 1-25 μM))
COc1cc(-c2cccc(Cl)c2)nc2c1N1CC[C@@H](C1)N2C(=O)Nc1cnccn1 [Example 396] | A (A (EC1.5<1 μM))
O=C(Nc1cnccn1)N1c2nc(-c3cc(F)cc(F)c3)ccc2N2CC[C@H]1C2 [Example 397] | C (C (EC1.5>25 μM))
COc1ncc(-c2ccc3c(n2)N(C(=O)Nc2cnccn2)[C@H]2CCN3C2)c(OC)n1 [Example 398] | B (B (EC1.5 1-25 μM))
COc1ccc(-c2ccc3c(n2)N(C(=O)Nc2cnccn2)[C@H]2CCN3C2)cn1 [Example 399] | B (B (EC1.5 1-25 μM))
O=C(Nc1cnccn1)N1c2nc(-c3cncc(F)c3)ccc2N2CC[C@H]1C2 [Example 400] | B (B (EC1.5 1-25 μM))
O=C(Nc1ccc(F)cn1)N1c2nc(-c3cncc(Cl)c3)ccc2N2CCC[C@H]1C2 [Example 401] | A (A (EC1.5<1 μM))
Cc1nc(NC(=O)N2c3nc(-c4cncc(Cl)c4)ccc3N3CCC[C@H]2C3)sc1C [Example 402] | A (A (EC1.5<1 μM))
CN(C)c1cccc(-c2ccc3c(n2)N(C(=O)Nc2cnccn2)[C@H]2CCCN3C2)c1 [Example 403] | A (A (EC1.5<1 μM))
COc1cc(NC(=O)N2c3nc(-c4cncc(F)c4)ccc3N3CCC[C@H]2C3)ncn1 [Example 404] | A (A (EC1.5<1 μM))
COc1cc(NC(=O)N2c3nc(-c4cncc(Cl)c4)ccc3N3CCC[C@H]2C3)ncn1 [Example 405] | A (A (EC1.5<1 μM))
O=C(Nc1ccccn1)N1c2nc(-c3cncc(Cl)c3)ccc2N2CCC[C@H]1C2 [Example 406] | A (A (EC1.5<1 μM))
O=C(Nc1cccnc1)N1c2nc(-c3cccc(Cl)c3)ccc2N2CCC[C@H]1C2 [Example 407] | A (A (EC1.5<1 μM))

same assay, conditions: Trp mass spectrometry assay; percent maximum fold activation of SIRT1; read-out: Tryp % Fold Act

Compound | Emax [%]
C[C@@H]1CCN(C)c2ccc(-c3cccc(CC(O)CO)c3)nc2N1C(=O)Nc1ccc(F)cn1 (some centres unmarked) [Example 356] | > 150
O=C(Nc1cnccn1)N1c2nc(-c3cc(C(F)(F)F)cc(C(F)(F)F)c3)ccc2N2CC[C@H]1C2 [Example 363] | > 150
